Results as given in article PMC11547015 (International Journal of Molecular Sciences, 2024).
Where “and” joins values, the source holds several entries; their conditions need not be identical. Equal values may be shown once. Entries after “also recorded” stand apart in the source; their conditions may differ. Read-outs that look alike come from different tables or passages of the source.

Molecular target: T1, human D2 receptor (Homo sapiens, UniProt P14416)
T1 construct: host or cells: CHO-K1
Experiment: Dopamine assay: functional cAMP read-out (HitHunter cAMP XS+, Gi/o agonist format)
Assay type: cell-based
Conditions: for EC50: CHO-K1 cells overexpressing the human D2 receptor, cAMP read-out, 25 µM forskolin, n = 2 independent experiments; for dopaminergic activity (in words): isolated compounds, D2 receptor activity assay; for change in activity on the D2 receptor relative to 7: compared with 3-epi-maslinic acid (7)
Description: Dopaminergic activity was determined with a functional assay in CHO-K1 cells overexpressing the human D2 receptor, using a cAMP read-out (Eurofins DiscoverX Corporation, Fremont, CA, USA). The cells (5000 cells/cm^2) were seeded in a total volume of 20 μL onto white 384-well microplates and incubated at 37 °C for 18 h prior to testing. cAMP modulation was determined using the DiscoverX HitHunter cAMP XS+ assay. Since the D2 receptor couples mainly to Gi/o (inhibitory towards cAMP), the assay was run in Gi/o agonist format. In brief, the cells were incubated with the samples in the presence of 25 µM forskolin to induce a response. Medium was aspirated from cells and replaced with 10 µL HBSS/10 mM Hepes (assay buffer). Intermediate dilution of sample stocks was performed in the assay buffer to generate a concentration 4-fold higher (4×) than the final in-well concentration. A total of 5 µL of 4× sample was added to the cells, followed by 5 µL 4× EC80 forskolin in the assay buffer and incubated at 37 °C for 30 min. The final DMSO concentration (vehicle) was 1%. After appropriate compound incubation, the assay signal was generated through incubation with 5 µL of cAMP XS + Ab reagent followed by 20 μL cAMP XS + ED/CL lysis cocktail for one hour followed by incubation with 20 μL cAMP XS + EA reagent for three hours at room temperature. The microplates were read following signal generation with an Envision^TM instrument (PerkinElmer, Waltham, MA, USA) for chemiluminescent signal detection.
For Gi agonist mode assays, percentage activity was calculated using the following formula: % Activity = 100% × (1 − (mean RLU of test sample − mean RLU of MAX control)/(mean RLU of vehicle control − mean RLU of MAX control)). Concentration–response curves were generated using EC50 using Graphpad Prism version 9.0 (Graphpad Software, Boston, MA, USA), and curve fitting was performed using non-linear regression analysis applying the following variable slope equation: Y = Bottom + (Top − Bottom)/(1 + 10^((LogEC50 − X) × HillSlope)).

[1] = read-out: EC50 at the D2 receptor

T1 sequence (P14416 whole entry): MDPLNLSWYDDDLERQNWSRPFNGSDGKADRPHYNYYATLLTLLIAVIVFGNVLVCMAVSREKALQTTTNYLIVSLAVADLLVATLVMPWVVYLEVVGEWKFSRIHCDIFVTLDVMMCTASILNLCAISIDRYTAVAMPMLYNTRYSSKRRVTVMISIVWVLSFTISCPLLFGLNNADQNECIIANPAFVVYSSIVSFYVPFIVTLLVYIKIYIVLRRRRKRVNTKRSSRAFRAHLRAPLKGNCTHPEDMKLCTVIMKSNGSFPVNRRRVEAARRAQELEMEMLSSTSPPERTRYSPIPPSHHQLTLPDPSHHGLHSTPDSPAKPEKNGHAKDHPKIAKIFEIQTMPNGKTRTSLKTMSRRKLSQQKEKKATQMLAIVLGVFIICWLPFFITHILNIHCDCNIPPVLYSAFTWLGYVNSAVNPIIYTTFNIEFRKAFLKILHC

SMILES	EC50 [1]	EC50 (EC50 at the D2 receptor)	dopaminergic activity (in words)	other results
CC1(C)CC[C@]2(C(=O)O)CC[C@]3(C)C(=CC[C@@H]4[C@@]5(C)C[C@@H](O)[C@H](O)[C@@](C)(CO)[C@@H]5CC[C@]43C)[C@@H]2C1 [arjunolic acid, reference compound]	≥ 50 µM	–	–	–
CC(=O)O[C@@H]1C[C@@H](C)[C@](O)(CCC2=CC(=O)OC2O)[C@@]2(C)CCCC(C)(C)[C@H]12 (stereo partly shown) [compound 1, Viteagnusin I]	–	6.61 µM and 6.6 µM	–	IC50: 6.6 µM
CC(=O)O[C@@H]1C[C@@H](C)[C@](O)(CCc2ccoc2)[C@@]2(C)CCCC(C)(C)[C@H]12 [compound 2, Rotundifuran]	12.8 µM	–	–	–
CC(=O)O[C@@H]1C[C@@H](C)[C@](O)(CCC2=CC(=O)OC2)[C@@]2(C)CCCC(C)(C)[C@H]12 [compound 3, Vitexilactone]	> 50 µM	–	–	–
C=CC(C)(O)CC[C@@H]1[C@@]2(C)CCCC(C)(C)[C@@H]2CC[C@]1(C)O (stereo partly drawn) [compound 4, 8-epi-Sclareol]	24.3 µM	–	either negligible or no dopaminergic activity; also recorded: either weak or no dopaminergic activity	–
C=CC(C)(O)CC[C@H]1[C@@]2(C)CCCC(C)(C)[C@@H]2CC[C@@]1(C)O (stereo partly shown) [compound 5, Viteagnusin C]	> 50 µM	–	either negligible or no dopaminergic activity; also recorded: either weak or no dopaminergic activity	–
C=CC(C)(O)CC[C@@]1(C)C2=C([C@H](OC(C)=O)[C@H](OC(C)=O)[C@H]1C)C(C)(C)CCC2 (stereo partly shown) [compound 6, Vitetrifolin D]	–	> 50 µM	either negligible or no dopaminergic activity; also recorded: either weak or no dopaminergic activity	–
CC1(C)CC[C@]2(C(=O)O)CC[C@]3(C)C(=CC[C@@H]4[C@@]5(C)C[C@@H](O)[C@@H](O)C(C)(C)[C@@H]5CC[C@]43C)[C@@H]2C1 [compound 7, 3-epi-Maslinic acid]	–	5.1 µM	active	–
CC1(C)CC[C@]2(C(=O)O)CC[C@]3(C)C(=CC[C@@H]4[C@@]5(C)C[C@@H](O)[C@H](O)C(C)(C)[C@@H]5CC[C@]43C)[C@@H]2C1 [compound 8, Maslinic acid]	–	21.3 µM	active	change in activity on the D2 receptor relative to 7: 4 fold
C[C@H]1[C@H](C)CC[C@]2(C(=O)O)CC[C@]3(C)C(=CC[C@@H]4[C@@]5(C)C[C@@H](O)[C@@H](O)C(C)(C)[C@@H]5CC[C@]43C)[C@H]12 [compound 9, 3-epi-Corosolic acid]	–	10.7 µM	active	change in activity on the D2 receptor relative to 7: 2 fold
C[C@H]1[C@H](C)CC[C@]2(C(=O)O)CC[C@]3(C)C(=CC[C@@H]4[C@@]5(C)C[C@@H](O)[C@H](O)C(C)(C)[C@@H]5CC[C@]43C)[C@H]12 [compound 10, Corosolic acid]	–	> 50 µM	–	change in activity on the D2 receptor relative to 9 (epimers 9 and 10, differing at C3): > 5 fold
C[C@@H]1CC[C@]2(C(=O)O)CC[C@]3(C)C(=CC[C@@H]4[C@@]5(C)C[C@@H](O)[C@@H](O)C(C)(C)[C@@H]5CC[C@]43C)[C@@H]2[C@]1(C)O [compound 11, Euscaphic acid]	> 50 µM	–	–	–
C[C@@H]1CC[C@]2(C(=O)O)CC[C@]3(C)C(=CC[C@@H]4[C@@]5(C)C[C@@H](O)[C@H](O)C(C)(C)[C@@H]5CC[C@]43C)[C@@H]2[C@]1(C)O [compound 12, Tormentic acid]	> 50 µM	–	–	–
CC1(C)CC[C@]2(C(=O)O)CC[C@]3(C)C(=CC[C@@H]4[C@@]5(C)CC[C@H](O)C(C)(C)[C@@H]5CC[C@]43C)[C@@H]2C1 [oleanolic acid, reference compound]	–	≥ 50 µM	–	–
C[C@H]1[C@H](C)CC[C@]2(C(=O)O)CC[C@]3(C)C(=CC[C@@H]4[C@@]5(C)CC[C@H](O)C(C)(C)[C@@H]5CC[C@]43C)[C@H]12 [ursolic acid, reference compound]	≥ 50 µM	–	–	–
